The text below walks through data of article PMC549046 (Comparative Hepatology, 2005).

Structures are written as SMILES. pIC50, pKi: −log10 of the molar value. Values joined by “and” are separate entries in the source; they are usually repeats but may differ in a detail not shown here. Equal entries are not always repeated. “Also recorded” adds a separate entry of the source. Where two headings read alike, the source gives them in different places. Marks after values point to notes of the source that are not given here.

Data set [1] concerns Hepatic Microsomal CYP3A activity. More on the design: method as in PMID 15084407. The following applies: pooled cod liver microsomes; substrate BFC; published earlier, ref [22]; read-out: IC50, hepatic microsomal CYP3A (BFCOD) activity; cited from earlier work.
The subject of data set [2] is hepatic BFCOD activities. The following applies: ref [13],[22]; read-out: IC50, hepatic BFCOD activity in rainbow trout; cited from earlier work.
For data set [3], the system named is vitellogenin. Briefly: Plasma vitellogenin analysis (ELISA). The note with it: i.p., 5 days; for Vitellogenin plasma level: mean (SD), n = 7–8. The format is in vivo, Atlantic cod (Gadus morhua). As to the method:
(§1) Ethical approval licence number of ILAB Bergen: 119. Experiment no. 0204.
Plasma levels of vitellogenin protein were determined using a non-competitive sandwich ELISA kit and employing rabbit PAb against Atlantic cod vitellogenin from Biosense Laboratories AS (Bergen, Norway). Each plasma sample was diluted (1:20, 1:15,000 and 1:50,000) and 100 μl was analyzed and compared to purified Atlantic cod vitellogenin protein standards (ranging between 0.12 and 2,000 ng/ml). The signal was detected at A492 after 15 min incubation with substrate solution, using a VICTOR™ 1420 Multilabel Counter.
Background: In an ELISA, binding on a coated surface is turned into a signal by an enzyme label.

In data set [4] the test system is CYP3A. The data set can be described thus: In vitro pre-incubation of liver microsomes followed by CYP3A western blot. The following applies: pooled cod liver microsomes pre-incubated 10, 30, 60 min. The protocol: The CYP3A western blot analysis was performed as described above.
On the technique in general: Liver microsomes are a subcellular fraction often used to study metabolism.

The test system of data set [5] is CYP3A. Briefly: In vivo hepatic CYP3A protein expression (western blot). The note with it: i.p., 5 days, KC 12, NP 25, KC+NP 12+25 mg/kg. As to the method: (§2) Hatchery reared juvenile Atlantic cod of both sexes with an average body weight (b.w.) around 400 g were supplied by Sekkingstad, Preserving AS, Hordaland, Norway. The fish were kept in 0.5 m^3 indoor glass fibre tanks, at Industrial Laboratory (ILAB), Bergen High Technology Centre (Bergen, Norway), provided with continuously flowing seawater at a temperature of 8 ± 0.5°C and a salinity of 3.4%. Throughout the experimental period, the fish were subjected to continuous 24 h artificial light (the regime the farm used for optimal fish growth). The fish were acclimated to these conditions for five days prior to the experimental period. […] Control fish were injected with 5 ml peanut oil/kg b.w. (vehicle). […]
(§3) After five days exposure, the fish were sacrificed by a sharp blow to the head. […] Total microsomal protein content was measured according to a published method by Bradford, using bovine serum albumin as standard, and a SpectraFluor spectrophotometer from Tecan (Grödig/Salzburg, Austria). […]
(§4) Western blot analyses of 40 μg hepatic microsomal protein were carried out using enhanced chemoluminescence (ECL), based on the protocol previously described and PAb raised against rainbow trout CYP1A and CYP3A [41, 55, 56]. The intensity of each protein band was determined by densitometry on scanned fluorograms using Labview 7.0 from National Instruments (Austin, TX, USA).

The test system of data set [6] is CYP3A. Briefly: CYP3A 2D gel electrophoresis immunoblot of pooled liver microsomes from treated fish. The following applies: 2D gel immunoblot; pooled liver microsomes of 8–9 treated fish. As to the method: (§5) Hatchery reared juvenile Atlantic cod of both sexes with an average body weight (b.w.) around 400 g were supplied by Sekkingstad, Preserving AS, Hordaland, Norway. The fish were kept in 0.5 m^3 indoor glass fibre tanks, at Industrial Laboratory (ILAB), Bergen High Technology Centre (Bergen, Norway), provided with continuously flowing seawater at a temperature of 8 ± 0.5°C and a salinity of 3.4%. Throughout the experimental period, the fish were subjected to continuous 24 h artificial light (the regime the farm used for optimal fish growth). The fish were acclimated to these conditions for five days prior to the experimental period. […] Control fish were injected with 5 ml peanut oil/kg b.w. (vehicle). There were eight to nine fish in each treatment group. When designing the experiment, we could only test one combination due to limited fish numbers.
After five days exposure, the fish were sacrificed by a sharp blow to the head. Blood samples were collected from the dorsal vein using a heparinized syringe and the liver was quickly dissected out and placed in ice-cold homogenization buffer (0.1 M sodium phosphate buffer pH 7.4, containing 0.15 M KCl, 1 mM EDTA and 1 mM DTT). Liver microsomes were prepared according to the published protocol by Goksøyr, and stored at -80°C. Total microsomal protein content was measured according to a published method by Bradford, using bovine serum albumin as standard, and a SpectraFluor spectrophotometer from Tecan (Grödig/Salzburg, Austria). Blood plasma was isolated by centrifugation at 5,000 g for 10 min at room temperature and stored at -80°C. Ethical approval licence number of ILAB Bergen: 119. Experiment no. 0204.
In general terms: Immunoblotting shows a protein as a band on a membrane.

The subject of data set [7] is hepatic BFCOD activities. The note with it: ref [13],[22]; read-out: IC50, hepatic BFCOD activity in killifish; cited from earlier work.
Data set [8] concerns Hepatic Microsomal CYP3A activity. Briefly: In vitro inhibition of CYP3A-mediated BFCOD activity in pooled liver microsomes. The protocol:
(§6) For in vitro inhibition studies, feral Atlantic cod of both sexes were caught off the West coast of Sweden and placed in concrete basins provided with recirculating aerated seawater at 10 ± 2°C and a salinity of 3.0% and alternative light/dark photoperiods of 12 hours. Prior to sampling, the animals were starved and acclimated to these conditions for three weeks. Eight fish were injected i.p. with β-naphthoflavone (BNF), 50 mg/kg b.w. dissolved in peanut oil (5.0 mg/ml). The fish were placed in a 100 l glass aquarium provided with aerated seawater (above) and 30% of the water volume was replaced each day. To eliminate visual stress, the sides of the aquaria were covered with black plastic sheets. After 3 days exposure, the fish were sacrificed. Livers were quickly dissected out and placed in ice-cold homogenization buffer. Livers were pooled from twenty untreated Atlantic cod and from eight BNF treated Atlantic cod, respectively. Microsomal fractions were isolated (above) and stored in aliquots at -80°C. Ethical approval from the Ethical committee of Göteborg license number (99–2003).
(§7) The CYP1A activity was determined as EROD activity, using resorufin as standard in a SpectraFluor plate reader according to the protocol provided by Nilsen et al.. The CYP3A catalytic activity was measured as BFCOD activity, using HFC as standard. The BFC assay was performed based on a published protocol by Miller et al. and optimized for rainbow trout liver microsomes (T. Hegelund and M. Celander, unpublished data). The reaction mixture consisted of 200 μM BFC, bovine serum albumin (1.6 mg/ml), 2 μM NADPH and 10 μl liver microsomes in a total volume of 200 μl in 0.2 M potassium phosphate buffer pH 7.4 in a 96-multiwell plate using a VICTOR™ 1420 Multilabel Counter from Wallac Sverige AB (Upplands Väsby, Sweden).
(§8) In vitro inhibition studies were carried out in 96-multiwell plates using a VICTOR™ 1420 Multilabel Counter. […] The substances were dissolved in DMSO and diluted with ethanol. The final concentrations never exceeded 0.01% (v/v) DMSO and 0.001% ethanol (v/v). For CYP1A and CYP3A inhibition studies, pooled liver microsomes from BNF-treated and from untreated Atlantic cod, respectively, were used.

In data set [9] the test system is CYP3A. The description is as above. The following applies: both, Atlantic cod (Gadus morhua), microsomes, pH 7.4. The protocol: as §6, §7, §8
For data set [10], the system named is 17β-estradiol. The data set can be described thus: Plasma 17β-estradiol analysis (EIA). The format is in vivo, Atlantic cod (Gadus morhua). The following applies: i.p., 5 days; for 17β-Estradiol plasma level: mean (SD), n = 8. As to the method: as §1
(§9) Plasma levels of 17β-estradiol and testosterone were determined using competitive EIA kits from Cayman Chemical (Ann Arbor, MI, USA). Plasma levels of 11-keto-testosterone were analyzed using a competitive EIA kit, from Biosense Laboratories AS (Bergen, Norway). Plasma from each fish was concentrated (2:1) by extraction once with six volumes diethyl ether and 50 μl was analyzed and compared to purified standard substances. The signals were detected at A405 after 40 min (17β-estradiol), 60 min (testosterone) or 80 min (11-keto-testosterone) incubation with substrate solution, using a VICTOR™ 1420 Multilabel Counter.

The test system of data set [11] is 11-keto-testosterone. Briefly: Plasma 11-keto-testosterone analysis (EIA). The format is in vivo, Atlantic cod (Gadus morhua). The following applies: i.p., 5 days; for 11-Keto-Testosterone plasma level: mean (SD), n = 6–8. As to the method: as §1, §9
The target in data set [12] is T1, Hepatic Microsomal CYP1A activity (Gadus morhua, UniProt A0ACE1MZ74).
T1 sequence (A0ACE1MZ74 1-519): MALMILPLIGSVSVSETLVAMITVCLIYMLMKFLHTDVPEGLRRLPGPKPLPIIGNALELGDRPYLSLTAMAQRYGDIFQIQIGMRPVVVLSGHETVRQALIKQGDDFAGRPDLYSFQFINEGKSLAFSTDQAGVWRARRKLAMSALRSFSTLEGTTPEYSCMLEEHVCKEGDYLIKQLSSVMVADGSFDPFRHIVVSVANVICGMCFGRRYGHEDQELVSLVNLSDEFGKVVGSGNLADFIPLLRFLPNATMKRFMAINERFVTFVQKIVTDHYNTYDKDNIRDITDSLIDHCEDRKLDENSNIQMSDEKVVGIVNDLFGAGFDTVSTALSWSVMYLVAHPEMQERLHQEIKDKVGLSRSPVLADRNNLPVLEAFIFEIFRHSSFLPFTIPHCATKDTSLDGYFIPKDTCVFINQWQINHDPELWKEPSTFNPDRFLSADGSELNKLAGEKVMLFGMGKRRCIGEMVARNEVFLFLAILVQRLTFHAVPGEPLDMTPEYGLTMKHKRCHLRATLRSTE
Briefly: In vitro inhibition of CYP1A-mediated EROD activity in pooled liver microsomes. The following applies: for Type of inhibition of CYP1A (EROD) activity: cod liver microsomes, Dixon plots. As to the method: as §6, §7, §8

The target in data set [13] is T2, CYP1A (Gadus morhua, UniProt A0ACE1MZ74).
T2 sequence (A0ACE1MZ74 1-519): T1 sequence (A0ACE1MZ74 1-519)
The data set is described as above. The following applies: both, Atlantic cod (Gadus morhua). The protocol: as §6, §7, §8

Data set [14] has as its system CYP1A. Briefly: In vivo hepatic CYP1A protein expression (western blot). The note with it: i.p., 5 days, NP 25 mg/kg, ethynylestradiol 5 mg/kg. As to the method: as §2, §3, §4
Data set [15] relates to CYP1A. Briefly: In vivo hepatic CYP1A enzyme (EROD) activity after i.p. exposure. The following applies: 5 days, NP 25 mg/kg, ethynylestradiol 5 mg/kg. The protocol:
as §5, §3
The CYP1A activity was determined as EROD activity, using resorufin as standard in a SpectraFluor plate reader according to the protocol provided by Nilsen et al.. The CYP3A catalytic activity was measured as BFCOD activity, using HFC as standard. […]

Data set [16] has as its target T3, cDNA Expressed Human CYP3A4 (Homo sapiens, UniProt P08684).
T3 construct: purchased BD Biosciences Company, Gentest (Woburn, MA, USA); host or cells: baculovirus expression system (supersomes)
The data set can be described thus: Inhibition of BFCOD activity in cDNA expressed human CYP3A4 baculovirus supersomes. The format is biochemical. The following applies: substrate BFC.

Where [17] appears, read: compared to vehicle or single compounds, in words.

T3 sequence (P08684 whole entry): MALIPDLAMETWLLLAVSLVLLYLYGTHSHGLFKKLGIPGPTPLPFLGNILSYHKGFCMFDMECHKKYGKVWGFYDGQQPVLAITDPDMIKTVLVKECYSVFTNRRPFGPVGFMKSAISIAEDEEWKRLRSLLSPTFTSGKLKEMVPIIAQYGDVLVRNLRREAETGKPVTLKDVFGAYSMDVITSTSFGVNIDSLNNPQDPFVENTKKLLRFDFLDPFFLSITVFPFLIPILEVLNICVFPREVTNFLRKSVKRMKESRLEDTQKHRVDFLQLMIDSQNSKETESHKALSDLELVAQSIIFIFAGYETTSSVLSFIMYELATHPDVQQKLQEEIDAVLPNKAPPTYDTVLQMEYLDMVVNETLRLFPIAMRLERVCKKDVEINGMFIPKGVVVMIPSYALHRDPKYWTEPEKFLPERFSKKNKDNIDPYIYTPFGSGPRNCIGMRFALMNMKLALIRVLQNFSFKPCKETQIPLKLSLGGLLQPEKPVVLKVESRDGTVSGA

Turning to `CC(=O)N1CCN(c2ccc(OCC3COC(Cn4ccnc4)(c4ccc(Cl)cc4Cl)O3)cc2)CC1` (stereo not drawn) [ketoconazole], the pIC50 – broadly, the IC50 on a negative log10 scale, so that one unit is a factor of ten – is 6.52 in [1], 7.00 in data set [2] and 8.00 in [7]. In addition, in [3], the Vitellogenin plasma level was 0.6 (0.9) μg/ml plasma. The “Effect of pre-incubation on hepatic microsomal CYP3A protein levels” value in [4] is listed as “no effects”. Also, in [5], the “Effect on CYP3A protein expression” value is “no effect”. Moreover, the “Induction of the more basic CYP3A-immunoreactive isoform (pI around 5.1)” value in data set [6] was “inducible; also recorded: induced”. Moreover, in data set [8] (cod liver microsomes, Dixon plots), the “Type of inhibition of CYP3A (BFCOD) activity” value was “non-competitive inhibitor”. In data set [8] (no [S] level stated, Dixon plot), the “Ki, hepatic microsomal CYP3A (BFCOD) activity” value was “sub-μM range”. The pKi (usually −log10 of the Ki, conventionally taken in molar units) in data set [9] was […]. In addition, the 17β-Estradiol plasma level in data set [10] is given as 60 (26) pg/ml plasma. For the same compound, the 11-Keto-Testosterone plasma level in data set [11] is 71 (46) pg/ml plasma.
As for `CCCCCCCCCc1ccc(O)cc1` [nonylphenol, 4-nonylphenol], the “Type of inhibition of CYP1A (EROD) activity” value in data set [12] was “non-competitively inhibited”; in data set [12] (listed as Nonylphenol), “non-competitive inhibitor”. The pKi was 5.46 in [12] (read-out: Ki, hepatic microsomal CYP1A (EROD) activity, no [S] level stated, Dixon plot, listed as Nonylphenol (NP)) and about 5.46 in data set [13] (Ki, hepatic microsomal CYP1A (EROD) activity, no [S] level stated, Dixon plot). For the same compound, the pIC50 is 5.28 in data set [13], 4.46 in data set [16] and 3.80 in [9]. Further, the “Effect on CYP1A protein expression” value in data set [14] is “no effect”. Further, the “Decrease in CYP1A (EROD) activity compared to fish exposed to ketoconazole + nonylphenol” value in data set [15] is 65%. The “Reduction of CYP1A (EROD) activity compared to vehicle treated fish” value in data set [15] is 41% and 40%. In addition, the “Effect on plasma vitellogenin” value in data set [3] (in words) is reported as “induction”. For the same compound, the Vitellogenin plasma level in data set [3] is on record as 266 (199) ^a μg/ml plasma. In addition, the “Effect on CYP3A protein expression” value in data set [5] is “no effect”. The “Induction of the more basic CYP3A-immunoreactive isoform (pI around 5.1)” value in data set [6] is listed as “did not induce”. The “Effect on 17β-estradiol plasma levels” value in data set [10] (setting [17]) was “no statistically significant effect”. Further, the 17β-Estradiol plasma level in data set [10] is reported as 76 (52) pg/ml plasma. Moreover, the “Effect on 11-keto-testosterone plasma levels” value in data set [11] (setting [17]) is “no statistically significant effect”. Moreover, the 11-Keto-Testosterone plasma level in [11] is 42 (67) pg/ml plasma.
